Paper PMC9834611 (Pharmacology Research & Perspectives, 2023)
Read-outs that look alike come from different tables or passages of the source.

Columns and labels:
[1] = Mouse PBPK model simulations and model parameters
Excerpt: This model thus aims to elucidate the implications of drug pharmacokinetics and mechanisms of distribution, ultimately providing a modeling base for extrapolation of simulated concentration profiles to clinical settings. The primary drivers of vinca disposition are fraction unbound drug to plasma proteins, intercellular tubulin binding, metabolism, and ABCB1‐mediated transport. With exception to the brain, tissue compartments are defined by a well‐stirred, flow‐limited model in which the concentration of drug leaving the compartment is equal to the unbound drug concentration within the tissue. The blood–brain barrier (BBB) is distinctive as the tight junctions and prolific expression of efflux transporter proteins provide a highly restrictive barrier to many lipophilic molecules. The brain is thus defined by a permeability‐limited model dictated by a modification of Fick's Law of diffusion in which the permeability‐surface area product constitutes the tissue permeation coefficient, the capillary surface area permitting diffusion, and the thickness of the cellular membrane.[32] ABCB1 is highly expressed at the blood–brain barrier as well as in the liver, gut, and kidneys, facilitating drug excretion.[14], [15]
Physiological parameters for tissue‐specific percent body weight and cardiac output for mouse, canine, and human were sourced from Brown et al.[27] and presented in Table 1. All tissue densities were approximated to be 1 kg/L. Cardiac output for respected species was estimated using a previously derived allometric scaling relationship for unanesthetized mice.[33] […] The rate of change in the amount of drug within generic, non‐eliminating compartments is governed by the following mass balance equation: (1) dAC/dt=VC×dCC/dt=QC×CA−CVT where AC is the amount of drug in the tissue, VC is the volume of the tissue (assuming static volume), CC is the concentration within the tissue, QC is the tissue perfusion rate, CA is the arterial blood drug concentration, and CVT is the venous blood drug concentration.
Tissue‐specific‐binding capacities, BC , were obtained from studies where tubulin concentrations were determined from tubulin‐binding capacities for colchicine[12] and are reported in Table 2. […] Relative tissue tubulin‐binding capacities were thus assumed to be equivalent for the mouse, dog, and human PBPK model developed herein. […] Partition coefficients, PC , for respective tissues were determined by performing parameter optimization in MATLAB's tool, SimBiology, using a nonlinear least squares regression estimation method from the optimization toolbox. The statistical modeling method fit pooled Mdr1a/b (−/−) tissue data generating one set of partition parameters for all tissues which are reported in Table 1.
The transfer of drugs at the BBB is unique as the mass transfer out of the vascular space surrounding the brain tissue is hindered by a permeability barrier.

serum proteins = conditions: cited from earlier work
[2] = cited from earlier work; for t1/2: Obs
[3] = VBL PK study in wild‐type and Mdr1a/b(−/−) mice, observed serum and tissue data; conditions: female, mouse, iv, 2 mg/kg; for half-life: in vivo, 2 mg/kg IV, Obs
Procedure: Mouse protocols were approved by the Institutional Animal Care and Use Committee at Colorado State University. Two strains of mice were used: FVB female mice and Mdr1a/b (−/−) (knock‐out, KO) female mice in a FVB background (Taconic Biosciences, Inc) for a total of 15 mice per strain with three mice per time point. […] Whole blood and tissues were harvested throughout a time range of 0.08 to 6 h. Whole blood was collected with heparinized needles and transferred to a microcentrifuge tube and was spun at 1200xg for 10 min at 4°C. The resulting serum and tissues were flash‐frozen in liquid nitrogen and stored at −80°C until ready for analysis.
Serum samples (200μl) were spiked with 50 ng (10 μl of 5 μg/ml solution) of vincristine as an internal standard. […] During vortex mixing, solid‐phase extraction cartridges were prepared by the addition of 400 μl methanol followed by 400 μl milli‐Q water. Loaded samples were then washed twice with 5% methanol. […] Samples were then evaporated to dryness using a Savant AES 1000 SpeedVac. Samples were then resuspended in 100 μl of diluent and transferred to autosampler vials with glass inserts for injection onto the HPLC system.
Positive ion electrospray ionization (ESI) mass spectra were obtained with a MDS Sciex 3200 Q‐TRAP triple quadrupole mass spectrometer (Applied Biosystems Inc) with a turbo ionspray source interfaced to a Shimadzu HPLC system and an HTC‐PAL autosampler (Leap Technologies). Samples were chromatographed with an Agilent ZORBAX Rx/SB‐C 8 (4.6 × 75 mm) column (Agilent Technologies) protected by a C 18 guard cartridge, 4.0 mm by 2.0 mm (Phenomenex). An LC gradient was employed with mobile phase A consisting of 10 mM ammonium acetate pH 4.0 and mobile phase B consisting of acetonitrile. Chromatographic resolution was obtained by holding mobile phase B steady at 50% from 0 to 0.01 min, increasing linearly from 50% to […] from 0.01 to 3.0 min, holding steady at 99% from 3.0 to 4.5 min, decreasing linearly from 99% to 50% from 4.5 to 5.0 min, followed by equilibration at 50% from 5.0 to 6.0 min. The LC flow rate was 0.75 ml/min and the sample injection volume was 10 μl. The analysis run time was 6.0 min.
Analyst v1.5.1 software (Applied Biosystems) was used for peak area integration.
Plasma and tissue concentrations were measured at time intervals between […] and 6 h post‐drug administration. The mouse PBPK model for Mdr1a/b (−/−) mice and wild‐type mice was developed using SimBiology, MATLAB with a focus on the following tissues: plasma, brain, bone marrow, liver, gut, and kidney. The primary drivers of vinca disposition including tubulin binding, ABCB1‐mediated transport, and elimination via metabolism, biliary clearance, and glomerular filtration created the foundation of the model. Metabolism values were either derived experimentally or sourced from literature, while tissue partitioning and Michaelis–Menten parameters for ABCB1 transport and biliary excretion were optimized using plasma and tissue PK data.

[4] = mouse model, optimized to mouse mdr1a/b (−/−) data

**Q.** Which “Vmbil (biliary transport Vmax)” value ([1]; mdra1a/b (−/−) mouse, optimized to fecal data) does the source give for `CC[C@]1(O)C[C@@H]2CN(CCc3c([nH]c4ccccc34)[C@@](C(=O)OC)(c3cc4c(cc3OC)N(C)[C@H]3[C@@](O)(C(=O)OC)[C@H](OC(C)=O)[C@]5(CC)C=CCN6CC[C@]43[C@@H]65)C2)C1` [VBL, Vinblastine] here?
**A.** 23.35 nmol/L/h

**Q.** What about the “Partition coefficient PCblood” value ([1]; mouse model) of the same compound?
**A.** 1.0

**Q.** And the “Partition coefficient PCBM” value ([1]; mouse model, bone marrow, optimized to mouse mdr1a/b (−/−) data)?
**A.** 1.0

**Q.** And the “Partition coefficient PCCNS” value [1, 4]?
**A.** 1.21

**Q.** And the “Partition coefficient PCGut” value [1, 4]?
**A.** 1.08

**Q.** What about the “Partition coefficient PCKidney” value [1, 4] of the same compound?
**A.** 3.73

**Q.** And the “Partition coefficient PCLiver” value [1, 4]?
**A.** 2.26

**Q.** What about the “bound to serum proteins” value (serum proteins; dog plasma) of the same compound?
**A.** ≤ 75%

**Q.** And the “Protein binding (single value)” value (serum proteins; value used in dog model)?
**A.** 75%

**Q.** And the “Protein binding (single value)” value (serum proteins; value used in human model)?
**A.** 75%

**Q.** And the “Protein binding (single value)” value (serum proteins; value used in mouse model)?
**A.** 75%

**Q.** And the t1/2 ([2]; Study 1: IV bolus 0.23 ± 0.08 mg/kg)?
**A.** 10.99 h

**Q.** And the AUCt ([2]; Study 2: non‐small cell lung cancer, IV bolus 0.083 ± 0.009 mg/kg prior to Cisplatin infusion, n 8, Obs)?
**A.** 163 ± 62 h x nM

**Q.** What about the t1/2 ([2]; Study 3: IV bolus 0.2 mg/kg) of the same compound?
**A.** 19.7 h

**Q.** And the AUCt ([2]; Study 3: metastatic hypernephroma, IV bolus 0.2 mg/kg, n 1, Obs)?
**A.** 141 h x nM

**Q.** And the AUC ([3]; FVB (wild-type), brain)?
**A.** 0.109 µM·h

**Q.** What about the AUC ([3]; FVB (wild-type), gut) of the same compound?
**A.** 3.47 µM·h

**Q.** And the half-life ([3]; FVB (wild-type), t1/2, wild‐type mice, brain)?
**A.** 236 min

**Q.** What about the half-life ([3]; FVB (wild-type), t1/2, wild‐type mice, gut) of the same compound?
**A.** 76.2 min

**Q.** And the half-life ([3]; FVB (wild-type), t1/2, wild‐type mice, kidney)?
**A.** 93.6 min

**Q.** What about the half-life ([3]; FVB (wild-type), t1/2, wild‐type mice, liver) of the same compound?
**A.** 79.2 min

**Q.** What about the half-life ([3]; FVB (wild-type), t1/2, wild‐type mice, serum) of the same compound?
**A.** 96 min

**Q.** What about the AUC ([3]; FVB (wild-type), kidney) of the same compound?
**A.** 12.6 µM·h

**Q.** And the AUC ([3]; FVB (wild-type), liver)?
**A.** 4.21 µM·h

**Q.** And the AUC ([3]; FVB (wild-type), serum)?
**A.** 0.181 µM·h

**Q.** What about the AUC ([3]; FVB, bone marrow) of the same compound?
**A.** 2.98 µM·h

**Q.** And the AUC ([3]; Mdr1a/b (−/−) knock-out in FVB background, bone marrow)?
**A.** 2.71 µM·h

**Q.** What about the half-life ([3]; Mdr1a/b (−/−) knock-out in FVB background, t1/2, Mdr1a/b (−/−) mice, bone marrow) of the same compound?
**A.** 350 min

**Q.** What about the half-life ([3]; Mdr1a/b (−/−) knock-out in FVB background, t1/2, Mdr1a/b (−/−) mice, liver) of the same compound?
**A.** 108 min

**Q.** What about the AUC ([3]; Mdr1a/b (−/−) knock-out in FVB background, liver) of the same compound?
**A.** 4.27 µM·h

**Q.** And the AUC ([3]; Mdr1a/b (−/−) knock-out, FVB background, brain)?
**A.** 1.4 µM·h

**Q.** And the AUC ([3]; Mdr1a/b (−/−) knock-out, FVB background, gut)?
**A.** 5.9 µM·h

**Q.** And the half-life ([3]; Mdr1a/b (−/−) knock-out, FVB background, t1/2, Mdr1a/b (−/−) mice, gut)?
**A.** 232 min

**Q.** And the half-life ([3]; Mdr1a/b (−/−) knock-out, FVB background, t1/2, Mdr1a/b (−/−) mice, kidney)?
**A.** 107 min

**Q.** What about the half-life ([3]; Mdr1a/b (−/−) knock-out, FVB background, t1/2, Mdr1a/b (−/−) mice, serum) of the same compound?
**A.** 97.2 min

**Q.** And the AUC ([3]; Mdr1a/b (−/−) knock-out, FVB background, serum)?
**A.** 0.215 µM·h
